One molecule from patent publication US11166960B2, “Modified release preparations containing oxcarbazepine and derivatives thereof” (Supernus Pharmaceuticals, Inc., priority 2006, dated 2021) can be followed below.

Read-outs that look alike come from different tables or passages of the source.

The nature of data set [1]: Solubility of oxcarbazepine in the presence of excipients. It is filed as physicochemical. On the procedure:
The solubility of oxcarbazepine in the presence of excipients was evaluated as follows: Excipients were dissolved in phosphate buffer to make solutions with concentrations shown in Table 3. One gram of oxcarbazepine was then mixed with 19 gm of the excipient solution. The mixture was rocked overnight at room temperature and then filtered using 0.22 μm filter. The filtrates were analyzed by HPLC.

Assay in data set [2]: as above
Conditions: de-ionized water, thermodynamic from solid. It is filed as physicochemical.

By solubility is commonly meant the dissolved amount per volume that the medium holds. For `NC(=O)N1c2ccccc2CC(=O)c2ccccc21` [Oxcarbazepine], the solubility in data set [1] (Kollidon 17 1% w/w in phosphate buffer) was determined as 171.7 µg/mL; in data set [1] (aqueous with cosolvent or surfactant or cyclodextrin, thermodynamic from solid, Hydroxypropyl betacyclodextrin (HBCD) 5% w/w in phosphate buffer, read-out: Solubility), 1020 µg/mL; in data set [1] (aqueous with cosolvent or surfactant or cyclodextrin, thermodynamic from solid, SLS/Stearic Acid/PEG400 5, 1, 1% w/w in phosphate buffer, read-out: Solubility), 3280 µg/mL; in data set [1] (phosphate buffer (control, no excipient), aqueous buffer, thermodynamic from solid, Phosphate Buffer Control, room temperature overnight, read-out: Solubility) it was 401 µg/mL; in data set [1] (phosphate buffer with 1% w/w Cremophor RH40, aqueous with cosolvent or surfactant or cyclodextrin, thermodynamic from solid, Cremophor RH40 1% w/w in phosphate buffer, read-out: Solubility), 314 µg/mL; in data set [1] (phosphate buffer with 1% w/w SLS and 1% w/w HBCD, aqueous with cosolvent or surfactant or cyclodextrin, thermodynamic from solid, SLS/HBCD 1, 1% w/w in phosphate buffer, read-out: Solubility), 349 µg/mL. In addition, the solubility in data set [1] (phosphate buffer with 5% w/w SLS and 1% w/w PEG400, aqueous with cosolvent or surfactant or cyclodextrin, thermodynamic from solid, SLS/Polyethylene Glycol 400 (PEG400) 5, 1% w/w in phosphate buffer, read-out: Solubility) came out at 3050 µg/mL; in data set [1] (phosphate buffer with 5% w/w docusate sodium, aqueous with cosolvent or surfactant or cyclodextrin, thermodynamic from solid, Docusate Sodium 5% w/w in phosphate buffer, read-out: Solubility), 6550 µg/mL; in data set [1] (phosphate buffer with 5% w/w sodium lauryl sulfate (SLS), aqueous with cosolvent or surfactant or cyclodextrin, thermodynamic from solid, Sodium Lauryl Sulfate (SLS) 5% w/w in phosphate buffer, read-out: Solubility), 4110 µg/mL; in data set [2], 273 µg/mL.
